Entries after “also recorded” stand apart in the source; their conditions may differ.
Tests used:
[1] = test system: Nkx2.1-GFP sorted cells transduced with slc16a2 shRNA lentivirus; experiment: Apoptosis assay (cleaved caspase-3) after stable knockdown of slc16a2; type: cell-based; details: DITPA from 3 days post-LV-transduction
Procedure: Nkx2.1-GFP sorted cells at the end of stage VI or V were transduced with MOI of 10 in appropriate stage-specific medium containing polybrene (5 μg/mL, Sigma-Aldrich). Efficiency of transduction was validated by analyzing mCherry+ cells by flow cytometry and efficiency of knockdown was validated by analyzing the slc16a2 transcript level by qRT-PCR 72 hours post-transduction. An apoptosis assay was performed on cells either, treated with or without DITPA for 2 days from 72 hours post-transduction, then fixed. Cells were stained with monoclonal rat anti-mCherry (M11217, Life Technologies, 1:1,000), polyclonal rabbit anti-cleaved caspase-3 (9661, Cell Signaling Technology, 1:400) and DAPI (Life Technologies) then analyzed by confocal microscopy (Nikon A1 Inverted using a ×20 water objective lens). Apopotic OLs were defined as those mCherry-positive cells with cleaved caspase-3+ nuclei that were also condensed and fragmented as assessed by DAPI. The data were plotted as the number of cleaved caspase-3/mCherry+ cells divided by total number of mCherry+ cells.

[2] = test system: Pre-OLs from Nkx2.1-GFP+ sorted cultures at stage VI, day 21; experiment: MTT-based cytotoxicity assay under Bosutinib MCT8 blockade; type: cell-based, human; details: Bosutinib with 10 ng/mL DITPA, 48 hours
Procedure: Pre-OLs from Nkx2.1-GFP+ sorted cultures at stage VI, day 21 were treated with the pharmacological inhibitor of MCT8, bosutinib (LC Laboratories, B-1788, reconstituted in dimethyl sulfoxide, [DMSO]) at different concentrations (1 ng/mL, 10 ng/mL and 100 ng/mL) with co-administration of 10 ng/mL DITPA. An MTT assay and flow cytometry were then performed on the cells stained for DAPI after 48 hours of treatment, to analyze DAPI+ dead cells.

slc16a2-/- zebrafish = details: cited from earlier work
[3] = test system: Pre-OLs from Nkx2.1-GFP+ sorted cultures at stage VI; experiment: Cell cycle analysis with BrdU (flow cytometry); type: cell-based, human
Procedure: BrdU cell cycle analysis was performed according to the manufacturer's protocol (BD Biosciences). For a detailed protocol, see Supplemental Experimental Procedures.
Pre-OLs from Nkx2.1-GFP+ sorted cultures at stage VI day 7 and day 21 were pulsed with BrdU for 1 hour. Cells were then treated with DNAse I for 45 minutes then collected using accutase (Life Technologies). Collected cells were fixed and permeabilized and stained with anti-BrdU conjugated with APC for 30 minutes at 4° C. Cells were washed and stained with 7-AAD. Cells were then analyzed on LSR-Fortessa (BD Biosciences). Unpulsed cells and pulsed cells without anti-BrdU staining served as a negative control.

AHDS patients = details: cited from earlier work
[4] = test system: H9-derived hOPCs (Merck/Millipore); experiment: Microarray analysis of H9-derived hOPC mixed neural cultures treated with DITPA; type: cell-based, human; details: 48 hours
Procedure: H9-derived hOPCs (Merck/Millipore) were differentiated for 4 weeks and the following treatments were administered to the cells for 48 hours: Medium with 0.01% absolute ethanol control; 1 ng/mL DITPA (DITPA 1 ng/mL); 10 ng/mL DITPA (DITPA 10 ng/mL); or 100 ng/mL DITPA (DITPA 100 ng/mL). 1 μg of collected mRNA from each population was hybridized to Human HT-12 v3.0 Gene Expression BeadChip (Illumina) according to the manufacturer's instruction (For detailed procedure see Supplemental Experimental Procedures).
H9-derived commercially available human neural precursors were cultured and differentiated according to the manufacturer's protocol (Human OPC differentiation kit, Millipore). Briefly, undifferentiated cells were maintained on 4% growth factor-reduced Matrigel (BD Biosciences) for a week in manufacturer provided expansion medium then differentiated on poly-L-ornithine (10 μg/mL, Sigma-Aldrich) and mouse laminin (10 μg/mL, Life Technologies) coated plates for 4 weeks in manufacturer provided medium.
Raw signal intensity values were subjected to variance stabilization transformation including background correction, log2 transformation and variance stabilization using the lumiR package of R Bioconductor (Du et al., 2008). Since there were fewer arrays of common genes detected in DITPA 100 ng/mL compared to DITPA 1 ng/mL and 10 ng/mL versus ethanol control, all analyses were performed without DITPA 100 ng/mL. Hierarchical clustering with centroid linkage clustering was performed. ANOVA analyses of normalized probe intensity values were performed in Partek Genomic Suite (Partek). ANOVA was used to calculate the significance of variation in normalized expression values between sample-groups, and fold change of gene expression was calculated as mean ratio. Absolute fold changes of 1.5 or more were defined as differentially expressed. Gene ontology enrichment analysis was performed on the list of differentially expressed probes in Partek.

[5] = 1 and 10 ng/mL, vs ethanol control

For `O=C(O)CCc1cc(I)c(Oc2ccc(O)cc2)c(I)c1` [DITPA, 3,5-Diiodothyropropionic acid], the “cell death / apoptosis mediated by slc16a2 knock-down” value [1] is given as “significantly reduced cell death; also recorded: Depicts an experiment which shows that DITPA rescues oligodendrocyte death”, the “survival rates (MTT assay)” value [2] is given as “increased survival rates” and the locomotor behavioral outcomes (slc16a2-/- zebrafish) is given as “restored”. For the same compound, the myelin deficiencies (slc16a2-/- zebrafish) was “restored”, the cell cycle exit ([3]; compared with T3) was “potentiates cell cycle exit faster than T3” and the “numbers of cells in S phase” value ([3]; day 7, compared with T3 alone) was “significant reduction”. The hypermetabolism (AHDS patients) was “reduce”, the peripheral hyperthyroidism (AHDS patients) was “normalize” and the “ASCL1 expression (oligodendroglial enriched transcription factor)” value [4, 5] was “up-regulation”. For the same compound, the “CRYM (μ-crystallin) expression” value [4, 5] was “down-regulation”, the DIO3OS expression [4, 5] was “up-regulation” and the DIO3 expression [4, 5] was “up-regulation”. The “MYT1 expression (oligodendroglial enriched transcription factor)” value [4, 5] was “up-regulation”, the RARA expression [4, 5] was “up-regulation” and the RARRES3 expression [4, 5] was “down-regulation”. For the same compound, the “astrocyte and neuron enriched transcription factors regulated” value [4, 5] was “minimal”, the thrb expression [4, 5] was “up-regulation” and the commonly regulated genes ([4]; DITPA at 1 ng/mL and 10 ng/mL vs ethanol control) was 3385. The “up-regulation of metallothionein (MT1A)” value ([4]; upon DITPA treatment) was ~8 fold, the “up-regulation of p53” value ([4]; upon DITPA treatment) was ~2 fold and the “up-regulation of reprimo (RPRM)” value ([4]; upon DITPA treatment) was ~13 fold.

From US10640748B2, “Oligodendroglial cell culturing methods and in methods for treating neurodegenerative disorders by using thyroid hormones or analogues” (NeuOrphan Pty Ltd, priority 2014, dated 2020)
